According to ChEMBL document CHEMBL1201862, “PubChem BioAssay data set” (2004):
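Where inhibition never reached the appropriate level, the endpoint shown equals the highest concentration tested. Otherwise, values were interpolated linearly from a five-concentration, 48-hour dose response in 96-well plates. At the GI50, growth is halved.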 Calls of active or inactive are those of the source. Rule as the data show it: active = GI50 up to about 1.1 µM and inactive = higher.

What was measured:
Test in all cases: inhibition of tumour cell growth, NCI panel, 48 h
786-0 = tested on: 786-0
A498 = tested on: A498
A549 = tested on: A549
ACHN = tested on: ACHN
CAKI-1 = tested on: CAKI-1
CCRF-CEM = tested on: CCRF-CEM
COLO 205 = tested on: COLO 205
DLD-1 = tested on: DLD-1
DMS-114 = tested on: DMS-114
DMS-273 = tested on: DMS-273
EKVX = tested on: EKVX
HCC 2998 = tested on: HCC 2998
HCT-116 = tested on: HCT-116
HCT-15 = tested on: HCT-15
HL-60 = tested on: HL-60
HOP-62 = tested on: HOP-62
HT-29 = tested on: HT-29
IGROV-1 = tested on: IGROV-1
K562 = tested on: K562
KM-20L2 = tested on: KM-20L2
KM12 = tested on: KM12
LOX IMVI = tested on: LOX IMVI
LXFL 529 = tested on: LXFL 529
M14 = tested on: M14
M19-MEL = tested on: M19-MEL
MOLT-4 = tested on: MOLT-4
Malme-3M = tested on: Malme-3M
NCI-H23 = tested on: NCI-H23
NCI-H460 = tested on: NCI-H460
NCI-H522 = tested on: NCI-H522
OVCAR-3 = tested on: OVCAR-3
OVCAR-4 = tested on: OVCAR-4
OVCAR-8 = tested on: OVCAR-8
RPMI-8226 = tested on: RPMI-8226
RXF 393 = tested on: RXF 393
RXF 631 = tested on: RXF 631
SF-295 = tested on: SF-295
SF-539 = tested on: SF-539
SK-MEL-2 = tested on: SK-MEL-2
SK-MEL-5 = tested on: SK-MEL-5
SN12C = tested on: SN12C
SNB-19 = tested on: SNB-19
SNB-75 = tested on: SNB-75
SR = tested on: SR
SW-620 = tested on: SW-620
TK-10 = tested on: TK-10
U-251 = tested on: U-251
UACC-257 = tested on: UACC-257
UACC-62 = tested on: UACC-62
UO-31 = tested on: UO-31
NCI-H226 = tested on: NCI-H226
OVCAR-5 = tested on: OVCAR-5
SF-268 = tested on: SF-268
SK-OV-3 = tested on: SK-OV-3
SNB-78 = tested on: SNB-78
XF498 = tested on: XF498

Q: With CN(C)C(=O)CC(C(=O)O)c1c[nH]c2ccccc12 (stereo unspecified) as the compound, how does the GI50 (786-0) read?
A: Its GI50 is > 100 µM (inactive).

Q: What about the GI50 (A498) of the same compound?
A: Its GI50 is > 100 µM (inactive).

Q: And the GI50 (A549)?
A: Its GI50 is > 100 µM (inactive).

Q: What about the GI50 (ACHN) of the same compound?
A: Its GI50 is > 100 µM (inactive).

Q: And the GI50 (CAKI-1)?
A: Its GI50 is > 100 µM (inactive).

Q: What about the GI50 (CCRF-CEM) of the same compound?
A: The GI50 was > 100 µM (inactive).

Q: And the GI50 (COLO 205)?
A: Its GI50 is > 100 µM (inactive).

Q: What about the GI50 (DLD-1) of the same compound?
A: The GI50 was > 100 µM (inactive).

Q: And the GI50 (DMS-114)?
A: The GI50 was > 100 µM (inactive).

Q: And the GI50 (DMS-273)?
A: Its GI50 is > 100 µM (inactive).

Q: What about the GI50 (EKVX) of the same compound?
A: Its GI50 is > 100 µM (inactive).

Q: What about the GI50 (HCC 2998) of the same compound?
A: Its GI50 is > 100 µM (inactive).

Q: What about the GI50 (HCT-116) of the same compound?
A: Its GI50 is > 100 µM (inactive).

Q: And the GI50 (HCT-15)?
A: Its GI50 is over 100 µM.

Q: What about the GI50 (HL-60) of the same compound?
A: Its GI50 is > 100 µM (inactive).

Q: And the GI50 (HOP-62)?
A: The GI50 was > 100 µM (inactive).

Q: And the GI50 (HT-29)?
A: Its GI50 is > 100 µM (inactive).

Q: What about the GI50 (IGROV-1) of the same compound?
A: The GI50 was > 100 µM (inactive).

Q: And the GI50 (K562)?
A: The GI50 was > 100 µM (inactive).

Q: And the GI50 (KM-20L2)?
A: Its GI50 is > 100 µM (inactive).

Q: And the GI50 (KM12)?
A: The GI50 was > 100 µM (inactive).

Q: What about the GI50 (LOX IMVI) of the same compound?
A: Its GI50 is > 100 µM (inactive).

Q: And the GI50 (LXFL 529)?
A: Its GI50 is > 100 µM (inactive).

Q: And the GI50 (M14)?
A: The GI50 was > 100 µM (inactive).

Q: What about the GI50 (M19-MEL) of the same compound?
A: The GI50 was > 100 µM (inactive).

Q: And the GI50 (MOLT-4)?
A: Its GI50 is > 100 µM (inactive).

Q: And the GI50 (Malme-3M)?
A: The GI50 was > 100 µM (inactive).

Q: And the GI50 (NCI-H23)?
A: The GI50 was > 100 µM (inactive).

Q: What about the GI50 (NCI-H460) of the same compound?
A: Its GI50 is > 100 µM (inactive).

Q: What about the GI50 (NCI-H522) of the same compound?
A: Its GI50 is > 100 µM (inactive).

Q: What about the GI50 (OVCAR-3) of the same compound?
A: Its GI50 is > 100 µM (inactive).

Q: And the GI50 (OVCAR-4)?
A: The GI50 was > 100 µM (inactive).

Q: What about the GI50 (OVCAR-8) of the same compound?
A: Its GI50 is > 100 µM (inactive).

Q: And the GI50 (RPMI-8226)?
A: Its GI50 is > 100 µM (inactive).

Q: And the GI50 (RXF 393)?
A: Its GI50 is 10.2 µM (inactive).

Q: What about the GI50 (RXF 631) of the same compound?
A: Its GI50 is > 100 µM (inactive).

Q: And the GI50 (SF-295)?
A: The GI50 was > 100 µM (inactive).

Q: What about the GI50 (SF-539) of the same compound?
A: The GI50 was > 100 µM (inactive).

Q: And the GI50 (SK-MEL-2)?
A: Its GI50 is > 100 µM (inactive).

Q: What about the GI50 (SK-MEL-5) of the same compound?
A: Its GI50 is > 100 µM (inactive).

Q: What about the GI50 (SN12C) of the same compound?
A: Its GI50 is > 100 µM (inactive).

Q: And the GI50 (SNB-19)?
A: The GI50 was > 100 µM (inactive).

Q: What about the GI50 (SNB-75) of the same compound?
A: The GI50 was > 100 µM (inactive).

Q: What about the GI50 (SR) of the same compound?
A: Its GI50 is > 100 µM (inactive).

Q: And the GI50 (SW-620)?
A: The GI50 was > 100 µM (inactive).

Q: What about the GI50 (TK-10) of the same compound?
A: Its GI50 is > 100 µM (inactive).

Q: What about the GI50 (U-251) of the same compound?
A: The GI50 was > 100 µM (inactive).

Q: What about the GI50 (UACC-257) of the same compound?
A: Its GI50 is > 100 µM (inactive).

Q: And the GI50 (UACC-62)?
A: Its GI50 is > 100 µM (inactive).

Q: And the GI50 (UO-31)?
A: The GI50 was 0.0895 µM (active).

Q: With COC(=O)[C@]1(C)CCC[C@]2(C)C3CC4OOC3(C=C4C(C)(C)O)CCC21 (stereo partly specified) as the compound, how does the GI50 (786-0) read?
A: Its GI50 is 30.1 µM (inactive).

Q: What about the GI50 (A498) of the same compound?
A: The GI50 was 24.4 µM (inactive).

Q: What about the GI50 (A549) of the same compound?
A: Its GI50 is 38.4 µM (inactive).

Q: What about the GI50 (ACHN) of the same compound?
A: The GI50 was 47.8 µM (inactive).

Q: What about the GI50 (CAKI-1) of the same compound?
A: The GI50 was 64.6 µM (inactive).

Q: And the GI50 (CCRF-CEM)?
A: Its GI50 is 21.6 µM (inactive).

Q: What about the GI50 (COLO 205) of the same compound?
A: Its GI50 is 69.8 µM (inactive).

Q: And the GI50 (DLD-1)?
A: Its GI50 is 28.4 µM (inactive).

Q: And the GI50 (DMS-114)?
A: The GI50 was 30.8 µM (inactive).

Q: What about the GI50 (EKVX) of the same compound?
A: The GI50 was 75.2 µM (inactive).

Q: And the GI50 (HCT-116)?
A: The GI50 was 31.8 µM (inactive).

Q: What about the GI50 (HCT-15) of the same compound?
A: The GI50 was 37.8 µM.

Q: And the GI50 (HL-60)?
A: Its GI50 is 14.3 µM (inactive).

Q: And the GI50 (HOP-62)?
A: Its GI50 is > 100 µM (inactive).

Q: What about the GI50 (HT-29) of the same compound?
A: The GI50 was 22.6 µM (inactive).

Q: What about the GI50 (IGROV-1) of the same compound?
A: Its GI50 is 72.4 µM (inactive).

Q: And the GI50 (K562)?
A: Its GI50 is 21.9 µM (inactive).

Q: And the GI50 (KM-20L2)?
A: The GI50 was 35.8 µM (inactive).

Q: What about the GI50 (KM12) of the same compound?
A: The GI50 was 42.7 µM (inactive).

Q: What about the GI50 (LOX IMVI) of the same compound?
A: Its GI50 is 36.8 µM (inactive).

Q: And the GI50 (LXFL 529)?
A: Its GI50 is 22.2 µM (inactive).

Q: What about the GI50 (M14) of the same compound?
A: The GI50 was 31 µM (inactive).

Q: What about the GI50 (M19-MEL) of the same compound?
A: The GI50 was 43 µM (inactive).

Q: What about the GI50 (MOLT-4) of the same compound?
A: Its GI50 is 22.2 µM (inactive).

Q: What about the GI50 (Malme-3M) of the same compound?
A: Its GI50 is > 100 µM (inactive).

Q: What about the GI50 (NCI-H226) of the same compound?
A: The GI50 was 31.1 µM (inactive).

Q: And the GI50 (NCI-H23)?
A: Its GI50 is 94 µM (inactive).

Q: What about the GI50 (NCI-H460) of the same compound?
A: Its GI50 is 33.5 µM (inactive).

Q: What about the GI50 (NCI-H522) of the same compound?
A: Its GI50 is 20.2 µM (inactive).

Q: What about the GI50 (OVCAR-3) of the same compound?
A: The GI50 was > 100 µM (inactive).

Q: What about the GI50 (OVCAR-4) of the same compound?
A: Its GI50 is 72.9 µM (inactive).

Q: What about the GI50 (OVCAR-5) of the same compound?
A: Its GI50 is > 100 µM (inactive).

Q: And the GI50 (OVCAR-8)?
A: The GI50 was 34.6 µM (inactive).

Q: And the GI50 (RPMI-8226)?
A: Its GI50 is 16.7 µM (inactive).

Q: What about the GI50 (RXF 631) of the same compound?
A: Its GI50 is > 100 µM (inactive).

Q: What about the GI50 (SF-268) of the same compound?
A: Its GI50 is 60.1 µM (inactive).

Q: What about the GI50 (SF-295) of the same compound?
A: Its GI50 is 95.9 µM (inactive).

Q: And the GI50 (SF-539)?
A: Its GI50 is > 100 µM (inactive).

Q: What about the GI50 (SK-MEL-2) of the same compound?
A: The GI50 was > 100 µM (inactive).

Q: And the GI50 (SK-MEL-5)?
A: The GI50 was 34.6 µM (inactive).

Q: And the GI50 (SK-OV-3)?
A: The GI50 was 76.7 µM (inactive).

Q: And the GI50 (SN12C)?
A: Its GI50 is > 100 µM (inactive).

Q: And the GI50 (SNB-19)?
A: Its GI50 is > 100 µM (inactive).

Q: What about the GI50 (SNB-78) of the same compound?
A: The GI50 was 30.8 µM (inactive).

Q: What about the GI50 (SW-620) of the same compound?
A: The GI50 was 36.1 µM (inactive).

Q: What about the GI50 (TK-10) of the same compound?
A: Its GI50 is > 100 µM (inactive).

Q: What about the GI50 (U-251) of the same compound?
A: Its GI50 is > 100 µM (inactive).

Q: And the GI50 (UACC-257)?
A: The GI50 was 80.5 µM (inactive).

Q: And the GI50 (UACC-62)?
A: The GI50 was 29.2 µM (inactive).

Q: What about the GI50 (UO-31) of the same compound?
A: Its GI50 is > 10 µM (inactive).

Q: And the GI50 (XF498)?
A: The GI50 was 20.6 µM (inactive).
